Measurements from ChEMBL document CHEMBL1201862, “PubChem BioAssay data set” (2004).
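Cells were grown in 96-well plates and exposed to each compound for 48 hours at five concentrations; endpoints were interpolated linearly between bracketing concentrations, or set to the highest concentration if not reached. At the GI50, growth is halved.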 Activity calls are given as the source filed them. No stated cut-off is given here; in the data, active = GI50 up to about 1.1 µM and inactive = higher.

What was measured:
Experiment in all cases: NCI anticancer screen, dose series, 48 h
OVCAR-3 = tested on: OVCAR-3
HCT-15 = tested on: HCT-15
IGROV-1 = tested on: IGROV-1
HOP-62 = tested on: HOP-62
T47D = tested on: T47D
MDA-MB-231 = tested on: MDA-MB-231
M14 = tested on: M14
SW-620 = tested on: SW-620
NCI-H226 = tested on: NCI-H226
CAKI-1 = tested on: CAKI-1
786-0 = tested on: 786-0
NCI/ADR-RES = tested on: NCI/ADR-RES
HCC 2998 = tested on: HCC 2998
A549 = tested on: A549
NCI-H23 = tested on: NCI-H23
OVCAR-8 = tested on: OVCAR-8
SF-539 = tested on: SF-539
Malme-3M = tested on: Malme-3M
HCT-116 = tested on: HCT-116
SK-MEL-5 = tested on: SK-MEL-5
HOP-92 = tested on: HOP-92
LOX IMVI = tested on: LOX IMVI
RXF 393 = tested on: RXF 393
PC-3 = tested on: PC-3
TK-10 = tested on: TK-10
BT-549 = tested on: BT-549
ACHN = tested on: ACHN
SR = tested on: SR
RPMI-8226 = tested on: RPMI-8226
MCF7 = tested on: MCF7
MDA-N = tested on: MDA-N
SF-295 = tested on: SF-295
U-251 = tested on: U-251
HT-29 = tested on: HT-29
UACC-62 = tested on: UACC-62
SK-OV-3 = tested on: SK-OV-3
SK-MEL-2 = tested on: SK-MEL-2
A498 = tested on: A498
SNB-75 = tested on: SNB-75
SK-MEL-28 = tested on: SK-MEL-28
SN12C = tested on: SN12C
K562 = tested on: K562
SF-268 = tested on: SF-268
MDA-MB-435 = tested on: MDA-MB-435
CCRF-CEM = tested on: CCRF-CEM
UACC-257 = tested on: UACC-257
DU-145 = tested on: DU-145
EKVX = tested on: EKVX
KM12 = tested on: KM12
MOLT-4 = tested on: MOLT-4
COLO 205 = tested on: COLO 205
OVCAR-5 = tested on: OVCAR-5
Hs-578T = tested on: Hs-578T
NCI-H522 = tested on: NCI-H522
NCI-H460 = tested on: NCI-H460
OVCAR-4 = tested on: OVCAR-4
HL-60 = tested on: HL-60
SNB-19 = tested on: SNB-19

In the case of Cc1ccc(NC(=S)C#N)cc1Cl, the GI50 (OVCAR-3) is reported as 21.5 µM (inactive), the GI50 (HCT-15) is reported as 23.3 µM and the GI50 (IGROV-1) is reported as 17.1 µM (inactive). The GI50 (HOP-62) was 49.1 µM (inactive), the GI50 (T47D) was 32.4 µM (inactive) and the GI50 (MDA-MB-231) was 88.3 µM (inactive). For the same molecule, the GI50 (M14) was 36.9 µM (inactive), the GI50 (SW-620) was 48.8 µM (inactive) and the GI50 (NCI-H226) was 24.3 µM (inactive). The GI50 (CAKI-1) was 41.3 µM (inactive), the GI50 (786-0) was 45.2 µM (inactive) and the GI50 (NCI/ADR-RES) was 31 µM (inactive). The GI50 (HCC 2998) was 24.3 µM (inactive), the GI50 (A549) was 23.8 µM (inactive) and the GI50 (NCI-H23) was 33.8 µM (inactive). For the same molecule, the GI50 (OVCAR-8) was 35.7 µM (inactive), the GI50 (SF-539) was 24.2 µM (inactive) and the GI50 (Malme-3M) was 23.4 µM (inactive). For the same molecule, the GI50 (HCT-116) was 36.6 µM (inactive), the GI50 (SK-MEL-5) was 24 µM (inactive) and the GI50 (HOP-92) was 13.4 µM (inactive). For the same molecule, the GI50 (LOX IMVI) was 42.3 µM (inactive), the GI50 (RXF 393) was 29.4 µM (inactive) and the GI50 (PC-3) was 43.4 µM (inactive). For the same molecule, the GI50 (TK-10) was 60.4 µM (inactive), the GI50 (BT-549) was 53 µM (inactive) and the GI50 (ACHN) was 37.7 µM (inactive). The GI50 (SR) was 27 µM (inactive), the GI50 (RPMI-8226) was 6.79 µM (inactive) and the GI50 (MCF7) was 56.2 µM (inactive). The GI50 (MDA-N) was 41.7 µM (inactive), the GI50 (SF-295) was 26.4 µM (inactive) and the GI50 (U-251) was 55.8 µM (inactive). The GI50 (HT-29) was 30.1 µM (inactive), the GI50 (UACC-62) was 37.9 µM (inactive) and the GI50 (SK-OV-3) was 26.5 µM (inactive). For the same molecule, the GI50 (SK-MEL-2) was 35.5 µM (inactive), the GI50 (A498) was 26.7 µM (inactive) and the GI50 (SNB-75) was 21.5 µM (inactive). For the same molecule, the GI50 (SK-MEL-28) was 41.2 µM (inactive), the GI50 (SN12C) was 58.5 µM (inactive) and the GI50 (K562) was 39.3 µM (inactive). The GI50 (SF-268) was 36.9 µM (inactive), the GI50 (MDA-MB-435) was 41.8 µM (inactive) and the GI50 (CCRF-CEM) was 25.5 µM (inactive). The GI50 (UACC-257) was 46.3 µM (inactive), the GI50 (DU-145) was 68.9 µM (inactive) and the GI50 (EKVX) was 42.2 µM (inactive). The GI50 (KM12) was 37.8 µM (inactive), the GI50 (MOLT-4) was 32.8 µM (inactive) and the GI50 (COLO 205) was 20.9 µM (inactive). For the same molecule, the GI50 (OVCAR-5) was 24.8 µM (inactive).
For CN1CCC(O)(OC(=O)C(c2ccccc2)C2(O)CCCC2)CC1 (centres undefined), the GI50 (OVCAR-3) was > 100 µM (inactive), the GI50 (HCT-15) was over 100 µM and the GI50 (IGROV-1) was > 100 µM (inactive). The GI50 (HOP-62) was > 100 µM (inactive), the GI50 (T47D) was > 100 µM (inactive) and the GI50 (MDA-MB-231) was > 100 µM (inactive). The GI50 (M14) was > 100 µM (inactive), the GI50 (SW-620) was > 100 µM (inactive) and the GI50 (NCI-H226) was > 100 µM (inactive). The GI50 (CAKI-1) was > 100 µM (inactive), the GI50 (786-0) was > 100 µM (inactive) and the GI50 (NCI/ADR-RES) was > 100 µM (inactive). For the same molecule, the GI50 (HCC 2998) was > 100 µM (inactive), the GI50 (A549) was > 100 µM (inactive) and the GI50 (Hs-578T) was > 100 µM (inactive). The GI50 (NCI-H23) was > 100 µM (inactive), the GI50 (OVCAR-8) was > 100 µM (inactive) and the GI50 (SF-539) was > 100 µM (inactive). For the same molecule, the GI50 (Malme-3M) was > 100 µM (inactive), the GI50 (HCT-116) was > 100 µM (inactive) and the GI50 (SK-MEL-5) was > 100 µM (inactive). For the same molecule, the GI50 (NCI-H522) was > 100 µM (inactive), the GI50 (HOP-92) was > 100 µM (inactive) and the GI50 (LOX IMVI) was > 100 µM (inactive). The GI50 (RXF 393) was > 100 µM (inactive), the GI50 (PC-3) was > 100 µM (inactive) and the GI50 (TK-10) was > 100 µM (inactive). The GI50 (ACHN) was > 100 µM (inactive), the GI50 (SR) was > 100 µM (inactive) and the GI50 (RPMI-8226) was > 100 µM (inactive). For the same molecule, the GI50 (MCF7) was > 100 µM (inactive), the GI50 (NCI-H460) was > 100 µM (inactive) and the GI50 (MDA-N) was > 100 µM (inactive). For the same molecule, the GI50 (SF-295) was > 100 µM (inactive), the GI50 (U-251) was > 100 µM (inactive) and the GI50 (HT-29) was > 100 µM (inactive). For the same molecule, the GI50 (OVCAR-4) was > 100 µM (inactive), the GI50 (UACC-62) was > 100 µM (inactive) and the GI50 (SK-OV-3) was > 100 µM (inactive). The GI50 (SK-MEL-2) was > 100 µM (inactive), the GI50 (HL-60) was > 100 µM (inactive) and the GI50 (A498) was > 100 µM (inactive). For the same molecule, the GI50 (SNB-75) was > 100 µM (inactive), the GI50 (SK-MEL-28) was > 100 µM (inactive) and the GI50 (SN12C) was > 100 µM (inactive). The GI50 (K562) was > 100 µM (inactive), the GI50 (SF-268) was > 100 µM (inactive) and the GI50 (MDA-MB-435) was > 100 µM (inactive). For the same molecule, the GI50 (CCRF-CEM) was > 100 µM (inactive), the GI50 (UACC-257) was > 100 µM (inactive) and the GI50 (DU-145) was > 100 µM (inactive). The GI50 (EKVX) was > 100 µM (inactive), the GI50 (KM12) was > 100 µM (inactive) and the GI50 (MOLT-4) was > 100 µM (inactive). For the same molecule, the GI50 (COLO 205) was > 100 µM (inactive), the GI50 (SNB-19) was > 100 µM (inactive) and the GI50 (OVCAR-5) was > 100 µM (inactive).
